Experimental findings from article PMC5706701, “Development of a homogenous high-throughput assay for inositol hexakisphosphate kinase 1 activity” (PLoS ONE, 2017) are described below.

Where two headings read alike, the source gives them in different places.

The target in the test is T1, Human IP6K1 (Homo sapiens, UniProt Q92551).
T1 construct: GST (N, cleaved yes); made in house; host or cells: C43 E. coli, pGEX-6P-2
The experiment in a line: IP6K1 high-throughput screen of the Sigma LOPAC (ADP-Glo Max, single point).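 Also: final compound concentration 10µM in 5% DMSO.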 In kind it is biochemical. (In ADP-Glo the light output rises with the ADP produced.)

Where [1] appears, read: Sigma LOPAC single-point screen, ADP-Glo Max raw signal per well.
The mark [2] stands for this setting: Sigma LOPAC single-point screen, Z-score from plate average and StDev.
Setting [3] is: LOPAC single-point screen, ADP-Glo Max raw signal per well.
The mark [4] stands for this setting: LOPAC single-point screen, Z-score against plate average and StDev.
Setting [5] is: LOPAC single-point screen, ADP-Glo Max luminescence raw signal per well.
[6] abbreviates: LOPAC single-point screen, Z-score relative to plate average and StDev.
Setting [7] is: LOPAC single-point screen, Z-score from plate average and StDev.
The mark [8] stands for this setting: LOPAC single-point screen, Z-score from raw signal with plate average and StDev.

T1 sequence (Q92551 whole entry): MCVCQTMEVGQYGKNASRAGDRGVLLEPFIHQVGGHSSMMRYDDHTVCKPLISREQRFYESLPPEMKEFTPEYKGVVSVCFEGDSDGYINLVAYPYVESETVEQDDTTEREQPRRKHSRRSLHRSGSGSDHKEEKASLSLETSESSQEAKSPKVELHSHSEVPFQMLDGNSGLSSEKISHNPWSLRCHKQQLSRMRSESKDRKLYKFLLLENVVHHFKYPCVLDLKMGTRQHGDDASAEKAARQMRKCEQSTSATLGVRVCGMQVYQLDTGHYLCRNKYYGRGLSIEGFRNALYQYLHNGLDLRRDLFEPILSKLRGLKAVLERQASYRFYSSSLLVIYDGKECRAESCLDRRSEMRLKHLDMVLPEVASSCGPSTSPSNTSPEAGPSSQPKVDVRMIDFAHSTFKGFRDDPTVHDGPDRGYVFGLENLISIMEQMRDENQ

As to `C=CCn1c(=O)c2c(nc(-c3ccc(S(=O)(=O)O)cc3)n2C)n(C)c1=O`, under setting [1], the “Raw Signal” value is recorded as 65523. The compound also yielded a Z-score under setting [2] of 1.34.
`Cl.NC1(C(=O)O)CC1`: the “Raw Signal” value under setting [1] is 65481. Under setting [2], the Z-score was 1.333.
As to `Clc1ccc(C(c2ccccc2Cl)C(Cl)Cl)cc1` (stereo not shown), under setting [3], the “Raw Signal” value amounted to 59387. The Z-score under setting [4] stood at 0.2596.
Taken in the same sequence, the figures for `COc1ccccc1N1CCNCC1.Cl` were 57311 and 0.2501.
Regarding `Cl.Cl.Clc1cccc(N2CCNCC2)c1`, the “Raw Signal” value under setting [1] is 60295. Besides, under setting [2], the Z-score turned out to be 0.4195.
In the same order, the values of `COc1ccc2c(c1)c(CC(=O)O)c(C)n2Cc1ccc(Cl)cc1` are 64773 and 1.208.
For `C[N+]1(C)CCN(c2ccccc2)CC1.[I-]`, the “Raw Signal” value under setting [3] is reported as 55993. The Z-score under setting [4] stood at 0.1677.
Taken in the same sequence, the figures for `CSc1nc(N)c2ncn([C@@H]3O[C@H](COP(=O)([O-])OP(=O)([O-])OP(=O)([O-])[O-])[C@@H](O)[C@H]3O)c2n1.[Na+].[Na+].[Na+].[Na+]` were 58230 and 0.05581.
For the compound `Br.Br.N=C(N)SCCN`, under setting [3], the “Raw Signal” value worked out at 59514. Also, the Z-score under setting [4] turned out to be 0.282.
In the same order, the values of `C[N+](C)(C)CCC(=O)c1cccc2ccccc12.[I-]` are 55064 and 0.1127.
Taken in the same sequence, the figures for `Cl.NCCc1ccc(S(=O)(=O)F)cc1` were 58918 and 0.177.
Consider `C[C@H]1CCC/C=C/[C@@H]2C[C@H](O)C[C@H]2[C@H](O)/C=C/C(=O)O1`, for which, under setting [1], the “Raw Signal” value turned out to be 59928. Also, under setting [2], the Z-score was found to be 0.3549.
In the same order, the values of `CCc1c(C(=O)OC)ncc2[nH]c3cc(OC)c(OC)cc3c12` are 57006 and 0.3735.
Consider `Cl.NCCCCNS(=O)(=O)c1ccc2c(Cl)cccc2c1`, for which the “Raw Signal” value under setting [3] was determined as 59537. Further, under setting [4], the Z-score is on record as 0.286.
As to `Cc1ccc(S(=O)(=O)N[C@@H](Cc2ccccc2)C(=O)CCl)cc1`, the “Raw Signal” value under setting [1] came out at 59222. This compound registered a Z-score under setting [2] of 0.6213.
Regarding `COC(=O)[C@@H](N)CCCN=C(N)N[N+](=O)[O-].Cl`, under setting [1], the “Raw Signal” value is given as 58464. Besides, the Z-score under setting [2] is given as 0.6839.
As to `CCCCCCN(CCCCCC)C(=O)Cc1c(-c2ccc(F)cc2)[nH]c2ccccc12`, the “Raw Signal” value under setting [3] is recorded as 56591. In addition, under setting [4], the Z-score is recorded as 0.2892.
For the compound `CCCN(CCC)CCc1c[nH]c2ccc(C(N)=O)cc12.O=C(O)/C=C\C(=O)O`, the “Raw Signal” value under setting [1] came to 60214. Under setting [2], the Z-score came out at 1.025.
As for `CC(Cc1ccc(O)c(O)c1)C(C)Cc1ccc(O)c(O)c1` (stereo not shown), the “Raw Signal” value under setting [3] is on record as 56278. The compound also had a Z-score under setting [4] of 0.3166.
Take `Nc1ncnc2c1ncn2[C@@H]1O[C@H](COP(=O)(O)OP(=O)(O)OP(=O)(O)OP(=O)(O)OC[C@H]2O[C@@H](n3cnc4c(N)ncnc43)[C@H](O)[C@@H]2O)[C@@H](O)[C@H]1O`: the “Raw Signal” value under setting [3] came to 55437. Under setting [4], the Z-score stood at 0.05483.
As to `NC(Cc1cccc(-c2ccccc2CP(=O)(O)O)c1)C(=O)O` (stereo not shown), under setting [3], the “Raw Signal” value worked out at 56365. In addition, the Z-score under setting [4] came out at 0.06629.
For `CN[C@H](CC(C)C)C(=O)N[C@H]1C(=O)N[C@@H](CC(N)=O)C(=O)N[C@H]2C(=O)N[C@H]3C(=O)N[C@H](C(=O)N[C@H](C(=O)O)c4cc(O)cc(O)c4-c4cc3ccc4O)[C@H](O)c3ccc(c(Cl)c3)Oc3cc2cc(c3O[C@@H]2O[C@H](CO)[C@@H](O)[C@H](O)[C@H]2O[C@H]2C[C@](C)(N)[C@H](O)[C@H](C)O2)Oc2ccc(cc2Cl)[C@H]1O.Cl`, the “Raw Signal” value under setting [1] stood at 61643. Under setting [2], this compound came in with a Z-score of 1.0917.
Turning to `N[C@H](C(=O)O)[C@H]1C[C@@H]1C(=O)O`, the “Raw Signal” value under setting [3] is 55555. The Z-score under setting [4] was found to be 0.07879.
For the compound 5-Bromo-2 -deoxyuridine, the “Raw Signal” value is given as 57175 and the Z-score was -0.13.
As for 17alpha-hydroxyprogesterone, the “Raw Signal” value under setting [1] was determined as 57278. Also, under setting [2], the Z-score is reported as 0.4287.
For `CCOC(=O)[C@]12CC1/C(=N\O)c1ccccc1O2` (mixture of isomers) [CPCCOEt], under setting [3], the “Raw Signal” value is 59801. Further, the Z-score under setting [4] is on record as 0.3325.
Turning to `Cl.NCCC[C@](N)(C(=O)O)C(F)F` (racemic), under setting [5], the “Raw Signal” value was determined as 51967. Under setting [6], this compound registered a Z-score of -0.6499.
As for `COC(=O)C(N)Cc1ccc(Cl)cc1.Cl` (racemic), the “Raw Signal” value under setting [5] worked out at 67025. Under setting [7], this compound registered a Z-score of 1.605.
Consider `CC(N)c1cccc(Cl)c1Cl.Cl` (racemic), for which, under setting [3], the “Raw Signal” value is reported as 54173. For the same compound, the Z-score under setting [8] is recorded as -0.2019.
As to `CC(N)(Cc1ccc(O)c(O)c1)C(=O)O` (racemic), the “Raw Signal” value under setting [5] was 41540. Moreover, the Z-score under setting [6] was -2.16.
In the case of `O=C(O)[C@H]1CCCN[C@H]1C(=O)O` (racemic), the “Raw Signal” value under setting [1] is given as 60739. Besides, the Z-score under setting [2] was 0.9161.
For `CCCCCCCCCC(=O)N[C@H](CN1CCOCC1)[C@H](O)c1ccccc1.Cl` (racemic), the “Raw Signal” value under setting [1] is 58472. In addition, under setting [2], the Z-score came out at 0.4756.
With `COC(=O)C(C)(N)Cc1ccc(O)cc1.Cl` (racemic), the “Raw Signal” value under setting [3] is on record as 52897. This compound also registered a Z-score under setting [8] of -0.2515.
As to `CCCCCCCCCCCCCCCC(=O)NCC(COP(=O)([O-])OCC[N+](C)(C)C)OCC` (racemic), the “Raw Signal” value under setting [5] stood at 63126. Moreover, the Z-score under setting [7] worked out at 1.616.
Taken in the same sequence, the figures for `CCCCCCCCCCCCCCCCCC(=O)NCC(COP(=O)([O-])OCC[N+](C)(C)C)OCC` (racemic) were 62966 and 1.584.
Consider `NC(CP(=O)(O)O)C(=O)O` (racemic) [(±)-2-Amino-3-phosphonopropionic acid], for which the “Raw Signal” value under setting [5] was found to be 53469. Under setting [6], this compound yielded a Z-score of -0.7827.
In the case of `NC(CCP(=O)(O)O)C(=O)O` (racemic) [(±)-2-Amino-4-phosphonobutyric acid], the “Raw Signal” value under setting [3] worked out at 55594. Besides, the Z-score under setting [8] was -0.4085.
Take `NC(CCCP(=O)(O)O)C(=O)O` (racemic) [(±)-2-Amino-5-phosphonopentanoic acid]: under setting [1], the “Raw Signal” value is 60299. For the same compound, the Z-score under setting [2] is listed as 0.4202.
With `NC(CCCCCP(=O)(O)O)C(=O)O` (racemic) [(±)-2-Amino-7-phosphonoheptanoic acid], the “Raw Signal” value came out at 66212 and the Z-score is on record as 1.462.
With `Br.Oc1cc2c(c(Cl)c1O)CCNCC2c1ccccc1` (racemic) [(±)-6-Chloro-PB hydrobromide], the “Raw Signal” value under setting [3] worked out at 55203. This compound displayed a Z-score under setting [8] of -0.1595.
For `Br.CCCN(CCC)C1CCc2ccc(O)cc2C1` (racemic) [(±)-7-Hydroxy-DPAT hydrobromide], the “Raw Signal” value under setting [3] stood at 55055. This compound also yielded a Z-score under setting [4] of -0.02275.
In the same order, the values of `Br.CCCN(CCC)C1CCc2cccc(O)c2C1` (racemic) [(±)-8-Hydroxy-DPAT hydrobromide] are 55597 and 0.08732.
Take `Br.Cc1o[nH]c(=O)c1CC(N)C(=O)O` (racemic) [(±)-AMPA hydrobromide]: the “Raw Signal” value under setting [3] stood at 54656. Also, the Z-score under setting [8] is -0.1038.
For the compound `CC1CCN=C(N)S1.Cl` (racemic) [(±)-AMT hydrochloride], under setting [1], the “Raw Signal” value turned out to be 65458. Under setting [2], the Z-score was determined as 1.329.
Regarding `CC(C)NCC(O)COc1ccc(CC(N)=O)cc1` (racemic) [(±)-Atenolol], the “Raw Signal” value under setting [3] turned out to be 56468. Under setting [8], this compound gave a Z-score of -0.2545.
Consider `NCC(CC(=O)O)c1ccc(Cl)cc1` (racemic) [(±)-Baclofen], for which the “Raw Signal” value under setting [1] was determined as 65373. Further, the Z-score under setting [2] was determined as 1.3139.
`COC(=O)C1=C(C)NC(C)=C([N+](=O)[O-])C1c1ccccc1C(F)(F)F` (racemic) [(±)-Bay K 8644]: the “Raw Signal” value under setting [5] was 52853. Under setting [6], this compound gave a Z-score of -0.8912.
Regarding `CN(C)CCC(c1ccc(Br)cc1)c1ccccn1.O=C(O)/C=C\C(=O)O` (racemic) [(±)-Brompheniramine maleate], under setting [3], the “Raw Signal” value came to 59748. Under setting [4], the Z-score is given as 0.3232.
In the case of `CC(C)(C)C1(O)CCN2CC3c4ccccc4CCc4cccc(c43)C2C1.Cl` (racemic) [(±)-Butaclamol hydrochloride], under setting [1], the “Raw Signal” value is given as 57693. Under setting [2], this compound gave a Z-score of 0.513.
Taken in the same sequence, the figures for `CC(C)(C)NCC(O)COc1cccc2[nH]c(=O)[nH]c12.Cl` (racemic) [(±)-CGP-12177A hydrochloride] were 57688 and 0.512.
Taken in the same sequence, the figures for `O=C(O)C1CN(CCCP(=O)(O)O)CCN1` (racemic) [(±)-CPP] were 59493 and 0.8786.
Taken in the same sequence, the figures for `Br.C=CCN1CCc2c(cc(O)c(O)c2Cl)C(c2ccccc2)C1` (racemic) [(±)-Chloro-APB hydrobromide] were 58189 and 0.6137.
On to `CN(C)CCC(c1ccc(Cl)cc1)c1ccccn1.O=C(O)/C=C\C(=O)O` (racemic) [(±)-Chlorpheniramine maleate], for which, under setting [1], the “Raw Signal” value is reported as 60371. Under setting [2], this compound returned a Z-score of 0.4329.
Turning to `COc1cc(CC(C)N)c(OC)cc1I.Cl` (racemic) [(±)-DOI hydrochloride], the “Raw Signal” value under setting [5] stood at 52125. In addition, the Z-score under setting [6] is given as -0.6178.
For `CNCC(O)c1ccc(O)c(O)c1.Cl` (racemic) [(±)-Epinephrine hydrochloride], the “Raw Signal” value is on record as 49297 and the Z-score is listed as -1.192.
Turning to `NC1CCN(O)C1=O` (racemic) [(±)-HA-966], the “Raw Signal” value under setting [3] stood at 57782. This compound also returned a Z-score under setting [4] of -0.02309.
